The values below are quoted from earlier work in publication PMC9263996 (iScience, 2022).

Each structure is given as a SMILES string.

In data set [1] the test system is EbalOBP3. Particulars: fluorescence-binding assays; ref Vandermoten et al., 2011; cited from earlier work.
In data set [2] the test system is SaveOBP3. Particulars: fluorescence-binding assays; ref Vandermoten et al., 2011; cited from earlier work.

In the case of `C=CC(=C)CC/C=C(\C)CCC=C(C)C` [(E)-β-farnesene], the “affinity with EbalOBP3” value in data set [1] was “high affinity”. The “affinity with SaveOBP3” value in data set [2] was “high affinity”.
